Experiments:
IL-1α = IL-1α mRNA expression by Realtime qRT-PCR in LPS-induced macrophages; format: cell-based, mouse; conditions: RAW264.7, LPS 24 hours
Description: (§1) To evaluate the inhibitory ability against inflammatory cytokines induced by LPS (lipopolysaccharide), mouse macrophages were used to assess the effect on the production of IL-1α and TNF-α, which are the early-stage inflammatory molecules. The cells used in the experiment were RAW264.7 (Mouse macrophage), which were cultured at 37° C. under 5% CO2 in Dulbecco's modified Eagle's medium (DMEM, Invitrogen) supplemented with 10% fetal bovine serum (FBS, Lonza) and 50 μg/mL streptomycin (Sigma).
(§2) Specifically, the cells were seeded into 6-well plates at a density of 1×10^6 cells/well and cultured at 37° C. in a 5% CO2 incubator for 24 hours. After removing the culture medium, the cells were replaced with fresh medium containing the sample and pre-incubated at 37° C. under 5% CO2 for 30 minutes. Following pretreatment with the sample for 30 minutes, the cells were exposed with LPS for 24 hours to induce an inflammatory response. As a control, cells treated with LPS alone, without sample treatment, were used.
(§3) Total RNA in cells was then extracted from cultured cells using Trizol reagent (Invitrogen, USA) for RNA analysis. The purity and integrity of the RNA were confirmed by measuring the A260 nm/A280 nm ratio, and RNA yield was measured by absorbance at 260 nm.
(§4) For cDNA synthesis, 3 μg of total RNA was mixed with Oligo dT 15 (500 ng/μL) primer, dNTP (10 mM), RTase inhibitor (40 U/μL), and Powerscript II RTase (Clontech, USA), followed by primer annealing at 25° C. for 10 minutes, cDNA synthesis at 42° C. for 60 minutes, and RTase denaturation at 95° C. for 5 minutes. PCR was performed to amplify IL-1α, TNF-α, and GAPDH from cDNA by mixing 3 μL of cDNA, 5 μL of 10×taq polymerase buffer, 2 μL of 10 mM dNTP, 2 μL each of 10 pmol primers, and 0.5 μL of taq polymerase, followed by the addition of distilled water to a final volume of 50 μL.
(§5) The primer sequences used are shown in Table 1, and the PCR process was carried out using the Real-time qRT PCR method with the LightCycler® 96 System (Roche Diagnostics).

macrophages = conditions: Food Funct. 2017; 8 (11): 4150-4158; cited from earlier work
[1] = tested on: TNF-α, IL-6, IL-1B, and NOS2; conditions: Food Funct. 2017; 8 (11): 4150-4158; cited from earlier work
[2] = tested on: RAW264.7 (mouse macrophage); experiment: NO production in LPS-induced mouse macrophages (Griess reagent); format: cell-based; conditions: RAW264.7, LPS 1 μg/mL, 24 hours, sample pretreatment 30 minutes, non-cytotoxic concentration range
Description: (§6) To evaluate the inhibitory ability against nitric oxide and PGE2 production induced by LPS (lipopolysaccharide), mouse macrophages were used to assess the effect on the production of nitric oxide (NO) and prostaglandin E2 (PGE2). The cells used in the experiment were RAW264.7 (mouse macrophage), which were cultured in Dulbecco's modified Eagle's medium (DMEM, Invitrogen) supplemented with 10% fetal bovine serum (FBS, Lonza) and 50 μg/mL streptomycin (Sigma) at 37° C. in 5% CO2.
Specifically, the cells were seeded into 96-well plates at a density of 1× 10^5 cells/well and incubated at 37° C. in a 5% CO2 incubator for 24 hours. The culture medium was removed from the cultured cells, and the medium was replaced with a fresh medium containing the test sample and the cells pre-incubated at 37° C. under 5% CO2 for 30 minutes. Following the 30-minute incubation, LPS was added to a final concentration of 1 μg/mL, and the cells were incubated at 37° C. in a 5% CO2 incubator for 24 hours. After incubation, 100 μL of the supernatant was transferred to a new 96-well plate and mixed with an equal volume of a 1:1 mixture of Griess reagent A and B, then 100 μL aliquot of the resulting mixture was dispensed into each well. Immediately after treatment with Griess reagent, absorbance was measured at 540 nm using a microplate reader. The NO production rate (%) of macrophages was calculated using Equation 1 below.

TNF-α = TNF-α mRNA expression by Realtime qRT-PCR in LPS-induced macrophages; format: cell-based, mouse; conditions: RAW264.7, LPS 24 hours
Description: as §1, §2, §3, §4, §5

[3] = tested on: RAW264.7 (mouse macrophage); experiment: PGE2 production in LPS-induced mouse macrophages (ELISA); format: cell-based; conditions: RAW264.7, LPS, 24 hours
Description: as §6
In addition, to evaluate the production of PGE2, a procedure similar to that described above was followed. The procedures for treating the cells with the sample and LPS after cell culture were identical. Subsequently, 100 μL aliquots of the supernatant were collected and transferred to a new 96-well plate, and diluted 10- to 20-fold with culture medium. In the NSB (Non-specific binding) wells of the Anti-Mouse IgG plate, 100 μL of culture medium was added. Then, 100 μL each of the standard and diluted supernatant were added to the respective wells, followed by 50 μL of blue PGE2-AP conjugate added to all wells except the blank well. 50 μL of culture medium was added to the NSB wells, and 50 μL of yellow PGE2 antibody was added to all wells except the blank and NSB wells. The plate was then shaken using an orbital shaker at 500 rpm for 2 hours at room temperature (22-25° C.). After 2 hours, the contents of the plate were discarded, and the wells were washed three times with 400 μL of washing buffer. Then, 200 μL of substrate solution was added to each well and the plate was incubated at room temperature (22-25° C.) for 45 minutes. After incubation, 50 μL of stop solution was added to each well, and the absorbance was immediately measured at 405 nm using a microplate reader. The PGE2 production rate (%) of macrophages was calculated using Equations 2 and 3 below.

[4] = tested on: human breast carcinoma cells (MCF-7); conditions: Planta Med. 2011; 77 (2): 164-8; cited from earlier work
skeletal muscle cells = conditions: J Biotechnol. 2023; 368:53-59; cited from earlier work

Structure (SMILES) | Relative IL-1α mRNA expression (IL-1α) | NO production in macrophages (macrophages) | expression of proinflammatory cytokines [1] | NO production [2] | Relative TNF-α mRNA expression (TNF-α) | PGE2 production [3] | PGE2 production ([3]; listed as linoleic acid) | growth of human breast carcinoma cells (MCF-7) [4] | Relative IL-1α mRNA expression (IL-1α; listed as araliadiol) | glucose uptake by skeletal muscle cells (skeletal muscle cells) | NO production ([2]; listed as araliadiol) | Relative TNF-α mRNA expression (TNF-α; listed as araliadiol) | PGE2 production ([3]; listed as araliadiol)
CCCCC/C=C\C/C=C\CCCCCCCC(=O)O [Assay-5, linoleic acid] | tendency toward decreased IL-1α mRNA expression with increasing concentration | inhibiting NO production in macrophages | suppressing the expression of proinflammatory cytokines including TNF-α, IL-6, IL-1B, and NOS2 | relatively high NO reduction at the lowest concentrations | did not inhibit TNF-α mRNA expression | increase in PGE2 production with increasing concentration | increased the production of the inflammatory factor PGE2 as its concentration increased |  |  |  |  |  | 
C=CC(O)C#CC#CC(O)/C=C\CCCCC (centres unmarked) [Assay-10, (9Z)-1,9-pentadecadiene-4,6-diyne-3,8-diol] | tendency toward decreased expression of both IL-1α and TNF-α mRNA with increasing concentration |  |  | relatively high NO reduction at the lowest concentrations | tendency toward decreased expression of both IL-1α and TNF-α mRNA with increasing concentration | decrease in PGE2 production with increasing concentration |  | inhibit the growth of human breast carcinoma cells (MCF-7) | relatively more reduced by araliadiol compared to linoleic acid | effectively enhance glucose uptake by skeletal muscle cells | higher NO reduction rate than linoleic acid | relatively more reduced by araliadiol compared to linoleic acid | decreased PGE2 production with increasing concentration

Source: patent US20250332119A1, “NOVEL ANTI-INFLAMMATORY COMPOSITION AND USE THEREOF” (ASK CO., LTD., priority 2023, published 2025)
